Values quoted from earlier work as cited in patent publication US20260048172A1, “WOUND DRESSINGS” (ConvaTec Limited, priority 2023, published 2026).

citric acid [citric/citrate]
pka (third) (Ka = 0.0000004): pka = 6.4
pka (second) (Ka = 0.0000200): pka = 4.7
pka (first) (Ka = 0.0007943): pka = 3.1
